From a melting point compilation (Tetko et al.; mined from patent text by program, amines drawn as free bases though some values may be those of a salt)

Work on `CCOC(=O)C1C(=O)N(c2ccc(Cl)c(Cl)c2)N=C1C` (stereo not given) yielded a melting point of 147 to 148 °C. In the case of `CC(C)(C)c1ccc(-c2[nH]c3cccc4c3c2CCNC4=O)cc1`, the melting point is reported as 243 to 244 °C. For `COC(=O)c1ccsc1`, the melting point was 84 to 85 °C. For `ClCCCCOc1ccc(C2c3ccc(OCc4ccccc4)cc3OCC2c2ccccc2)cc1` (stereo not given), the melting point was 94 to 97.5 °C. In the case of `CN(CCC12CC3CC(CC(C3)C1)C2)C(=O)NCCCc1ccncc1`, the melting point is reported as 99 to 109 °C. Work on `C=CCOc1cc(C)ccc1N1C(=O)c2ccccc2C1=O` yielded a melting point of 122 to 124 °C. `CC(=O)NC(C)c1cc(S(N)(=O)=O)sc1S(C)(=O)=O` (stereo not given) gave a melting point of 114 to 117 °C. Compound `Cc1cccc2c(N3CCS(=O)CC3)nc(N3CCNCC3)cc12` has a melting point of 201 to 203 °C. `Cc1ccc(C(=O)O)c(OC(=O)C=Cc2ccccc2)c1` gave a melting point of 156 to 157 °C. Work on `CCc1nc2c(N)nc(C)c(C)c2n1CCOCCNC(=O)NC(=O)c1ccccc1` yielded a melting point of 185 to 187 °C. Compound `Nc1ncn(C2OC(CO)C(O)C2O)c2nc(=O)sc1-2` (stereo not given) has a melting point of 132 to 134 °C. Work on `Nc1nc2ccc(C(=C(Cl)Cl)c3ccccc3)cc2n1N1C=CC=CS1` yielded a melting point of 214 to 217 °C. `CC(=O)Nc1ccc(C[C@H](NC(=O)N(CCO)CCc2ccccc2)C(=O)NCCN(C)C)cc1` gave a melting point of 132 to 137 °C. `CC(C)CC(N)C(=O)NC(=O)N(CCCl)N=O` (racemic) showed a melting point of 82 to 84 °C. Compound `CS(=O)(=O)c1ccc(-c2cnn(CC3CC3)c(=O)c2-c2ccc(F)cc2)cc1` has a melting point of 118 to 121 °C. `CC(C)(C)OC(=O)N1CCN(S(=O)(=O)c2ccc(Br)s2)CC1` showed a melting point of 127 °C. `Cc1ccc2c(c1)nnn2C(=O)N1CCOCC1` showed a melting point of 81 to 82 °C. `CC(=O)c1cc(Cc2ccccc2)c(O)c2ccccc12` gave a melting point of 139 to 141 °C. In the case of `O=c1[nH]cccc1-c1cccn2nc(Nc3ccc4ncccc4c3)nc12`, the melting point is reported as over 250 °C. `CCOCc1nc2c(N)nc3cc(/C=C/C(=O)OC)ccc3c2n1CCCCN1CCCS1(=O)=O` showed a melting point of 162 to 163 °C. `CCCCCN(CCC1CCCCC1)C(=O)NCc1ccncc1` showed a melting point of 64.7 to 65.8 °C. Work on `CNC(=S)N(C)c1ccc(OC)nc1` yielded a melting point of 116 °C. In the case of `CCOC(=O)c1ccc2c(SC(=O)N(C)C)cccn2c1=O`, the melting point is reported as 119 to 121 °C. With `CCCN1CCn2c(=S)[nH]c3cccc(c32)C1C` (stereo not given) the melting point was 179 °C. `O=C(O)Cc1ccc(CNC(=O)C2Cc3ccccc3N2S(=O)(=O)c2ccc(-c3ccc(F)cc3Cl)cc2)cc1` (stereo not given) showed a melting point of 119 °C. `Cc1nnc2n1-c1ccc(C#CCOc3ccccc3)cc1C(c1ccccc1Cl)=NC2` gave a melting point of 160 to 162 °C. `CC(C)c1noc(C2CCN(c3ccc4oc(-c5ccc(S(C)(=O)=O)cc5F)nc4c3)CC2)n1` showed a melting point of 206 to 209 °C. `CCOC(=O)Cn1c(-c2ccc(Br)cc2)nc2cccnc21` gave a melting point of 138 to 139 °C. In the case of `CC1OC(n2cnc3c(N)nc(F)nc32)C(O)C1O` (stereo not given), the melting point is reported as 244 to 245 °C. For `CCCCCCCCCCCCCOc1ccc(CO)cc1`, the melting point was 72 to 75 °C. Compound `CC(C#N)(c1ccc(Cl)cc1)c1ccc(-n2ncc(=O)[nH]c2=O)cc1Cl` (stereo not given) has a melting point of 235 °C. For `Cn1c(Cl)c(Cl)c(C#N)c1Cl`, the melting point was 113 to 114 °C. With `COc1nc(N)nc(OCC(F)(F)F)n1` the melting point was 78 to 80 °C. `CCCC(O)(CCC)c1ccc(C2=CC=CC(OCc3ccc(CO)c(CO)c3)C2(C)C)cc1` (stereo not given) gave a melting point of 118 to 120 °C. For `CCc1ccccc1NC=C1C(=O)N(c2ccccn2)N=C1C`, the melting point was 183 °C. Work on `c1ccc(N(CCCNC2=NC3CCC2CC3)c2ccccc2)cc1` yielded a melting point of 148 to 150 °C. Work on `COc1ccc(C(=O)Nc2ccccc2)cc1NC(=S)Nc1ccc(F)cc1` yielded a melting point of 182 to 183 °C. Work on `COC(=O)NC1=NCC(c2cccc(OC)c2)CN1` (stereo not given) yielded a melting point of 218 to 221 °C. In the case of `CCOC(=O)c1ccc2c(c1)sc1cc(N(C)C)ccc12`, the melting point is reported as 160 to 162 °C. With `Cc1nc2c(Cl)c(NC(=O)c3cc(Cl)ccc3Cl)ccc2s1` the melting point was 175 °C. With `COC(=O)c1nn(C)nc1C(=O)OC` the melting point was 86 to 87 °C. With `COCCn1nc2c3c(c(NCCNCCO)ccc31)C(=O)c1c(O)ccc(O)c1-2` the melting point was 174 to 178 °C. Work on `C[C@H]1C(=O)NC2CCC(=O)N21` (stereo not given in full) yielded a melting point of 84 to 86 °C. `COc1ccc(-c2cccc(C(=O)NCCO)c2)c2cc(Cc3cccc(C(F)(F)F)c3)oc12` gave a melting point of 111 to 112 °C. For `CCC(=O)N1Cc2cn[nH]c2-c2cc(N)ccc21`, the melting point was 218 to 220 °C. Work on `C=CCc1cc(C)c2c(c1O)C(C)(C)C(=O)N2Cc1ccccc1` yielded a melting point of 161 to 162 °C. Work on `O=C1c2ccccc2S(=O)(=O)N1CSc1nnc(SCCN2CCOCC2)s1` yielded a melting point of 129 to 131 °C. `CC(CC(N)=O)(c1ccc(O)cc1)c1ccc(O)cc1` gave a melting point of 216 °C. With `O=C1CC2Cc3ccccc3C2N1` (stereo not given) the melting point was 150 to 153 °C. Work on `O=C1Cc2cc(F)ccc2C(c2ccc(Cl)cc2)N1` (stereo not given) yielded a melting point of 160 to 161 °C. With `Nc1ncc(Br)cc1O` the melting point was 195 to 197 °C. For `O=C(C=Cc1ccc(CNCC2CCCC2)cc1)Nc1ccc(-c2ccc(Cl)cc2)cc1`, the melting point was 209 to 210 °C. In the case of `CC(C)(O)CCCCCc1cccc(CCc2cc(O)cc(O)c2)c1`, the melting point is reported as 102 to 103 °C. `N#Cc1c(N)[nH]c2ccc(Sc3ccc(O)cc3)cc12` gave a melting point of 241 to 242 °C. `CN(C)CCCn1c(-c2ccc(Br)cc2)cc2c1CCCCC2` gave a melting point of 69 to 70 °C. `CCc1nn(C2CCCC2)c2cc(C(=O)NCc3ccncc3)ccc12` showed a melting point of 147 to 149 °C. Work on `COc1ccc(-c2cn3c(n2)CCC3)cc1` yielded a melting point of 116 to 118 °C. `Cc1nnc(SCC2=C(C(=O)O)N3C(=O)C(NC(=O)CC4=CSCCS4)C3SC2)s1` (stereo not given) showed a melting point of 170 °C. For `CC(C)CC1Cc2cc(OCC(=O)O)c(Cl)c(Cl)c2C1=O` (stereo not given), the melting point was 192 °C. In the case of `CNC(=O)c1c(N)cccc1OC`, the melting point is reported as 186 to 189 °C. `CCOC(=O)c1c2ccc(CC(=O)NOCC(=O)N3CCCC3)ccc-2c(C(=O)OCC)c1N` showed a melting point of 168 to 170 °C. With `COC(C)(C)C(C#N)=NOCc1coc(-c2ccc(F)cc2)n1` the melting point was 75 to 77 °C. In the case of `N#CCc1c[nH]c2ccc(N)cc12`, the melting point is reported as 125 to 130 °C. With `NC(=S)NCCN1CCC(Nc2nc3ccccc3n2Cc2ccc(F)cc2)CC1` the melting point was 186 °C. Compound `CC(N)Cc1ccc(OCC(=O)NCCc2ccc(O)cc2)cc1` (stereo not given) has a melting point of 160 to 163 °C. Compound `CCOC(=O)C1(C(=O)OCC)CCc2cc(Br)ccc2N1Cc1ccccc1` has a melting point of 116 to 117 °C. With `COc1cc2ncnc(N3CCN(C(=O)Nc4ccc(C(=O)C(F)(F)F)cc4)CC3)c2cc1OC` the melting point was 144 to 146 °C. Work on `Cc1cccc(C)c1N(C(C)CN1C(=O)c2ccccc2C1=O)S(C)(=O)=O` (stereo not given) yielded a melting point of 188 to 190 °C. With `NC(=O)c1cc(OCCNCC(O)COc2ccc(-c3nc(C(F)(F)F)c[nH]3)cc2)ccc1O` (stereo not given) the melting point was 155 to 158 °C. In the case of `Cn1c2ccccc2c(=O)c2c(-c3cccc(O)c3)c(Cl)cc(Cl)c21`, the melting point is reported as 220 to 222 °C. For `CC1(n2cc(C(=O)O)c(=O)c3cc(F)c(F)c(F)c32)CC1`, the melting point was 292 to 294 °C. With `CC(C)c1nc(CN=[N+]=[N-])n(C)c1Sc1cc(Cl)cc(Cl)c1` the melting point was 84 to 85 °C. For `CCCCn1cnc2c(Oc3ccccc3)nc(Nc3ccc(OC)cc3OC)nc21`, the melting point was 97 to 99 °C. `O=C(CN1CCC(c2noc3cc(F)ccc23)CC1)N1Cc2ccccc2C1` gave a melting point of 184 to 185 °C. For `CN(C)c1ccc(NC(=O)N(C[C@@H]2CCCC[C@H]2CN(C(=O)Nc2ccc(N(C)C)cc2)C2CCCCCC2)C2CCCCCC2)cc1` (relative stereo), the melting point was 107 to 112 °C. `COC(=O)c1nc2ccc(CO)cc2cc1C` showed a melting point of 84.2 °C. Compound `c1ccc2c3c([nH]c2c1)CNCC3` has a melting point of 190 to 191 °C. With `COc1nc(C#N)c(C#N)[nH]1` the melting point was 137 to 138 °C. Work on `CC(=O)c1cnc(N)c(Cl)c1` yielded a melting point of 188 °C. `CCN1C(=O)CCCc2c1ccc(Nc1ncc(Cl)c(Nc3ccccc3C(=O)NC)n1)c2OC` showed a melting point of 225 to 227 °C. In the case of `COc1ccccc1C1(N)C(=O)Nc2ccc(Cl)cc21` (stereo not given), the melting point is reported as 220 to 224 °C. `Cc1c(SCCCSCc2ccncc2)ccnc1CNc1cnc2ccccc2c1` gave a melting point of 116 to 119 °C. Compound `COC(=O)COc1ccc2cc(CNC(=O)c3cc(-c4ccc(Cl)cc4)oc3C(F)(F)F)ccc2c1` has a melting point of 182 to 183 °C. For `O=C(CCO)NCc1ccc2ccn(C3CCN(CCc4ccccc4F)CC3)c2c1`, the melting point was 58 to 59 °C. Compound `COc1cccc(NC(=O)c2ccccc2[N+](=O)[O-])c1` has a melting point of 156 to 158 °C. For `COc1ccc(CC(=O)O)cc1C(C)(C)C`, the melting point was 93 to 94 °C. Work on `N#Cc1ccc2ccccc2c1O` yielded a melting point of 182 to 183 °C. `Cc1cc(C)nc(NC(=O)NS(=O)(=O)c2sccc2-c2ccon2)n1` showed a melting point of 172 to 173 °C. Compound `C#Cc1ccc2ccc(OC(OC)C(=O)NC(C)(C)COC)cc2c1` (stereo not given) has a melting point of 91 to 92 °C. With `O=C(NCCCCSc1ccncc1)c1ccccc1` the melting point was 75 to 77 °C. For `COc1cccc2c1CC1CC(CN3CCC(c4c[nH]c5ccccc45)CC3)CN(C)C1C2` (stereo not given), the melting point was 220 to 223 °C. With `CNC(=O)Nc1ccsc1C(=O)OC` the melting point was 141 to 142 °C. For `COC(=O)C1c2ccc(OC)cc2SC1c1ccc(OC)cc1` (stereo not given), the melting point was 98.3 to 99.8 °C. Work on `CCCCc1nc2cccc(C)c2c(=O)n1Cc1ccc(C2(C(=O)O)CC=CC2)s1` yielded a melting point of 150 to 151 °C. For `NS(=O)(=O)c1ccc(-c2ccccc2-c2ccc(C(F)(F)F)cc2)cc1`, the melting point was 188 °C. With `COCCOc1cc(N(C)S(=O)(=O)c2cccs2)c2[nH]c(C3=NCC(CC(=O)O)S3)cc2c1` (stereo not given) the melting point was 113 to 114 °C. With `COC(=O)c1ccccc1Nc1cccc(C(C)N(O)C(C)=O)c1Cl` (stereo not given) the melting point was 171 to 172 °C. For `CCOC(=O)CNC(=O)C1=C(C(=O)Nc2ccc(Cl)cc2F)CCCC1`, the melting point was 170 °C. Work on `CC(C)c1ccc2c(c1)c(Sc1ccccc1)c(CC(=O)O)n2Cc1ccc(Cl)cc1` yielded a melting point of 151 to 153 °C. In the case of `O=c1[nH]nc(-c2cc(Cl)ccc2O)n1-c1ccc(C(F)(F)F)cc1`, the melting point is reported as 236 to 238 °C. Compound `CCOC(=O)c1c[nH]c2cnc3cc(F)c(F)cc3c2c1=O` has a melting point of 300 °C. With `Cc1nc2c(c3c1[nH]c1ccccc13)C(=O)CC(C)(C)C2` the melting point was 176 to 177 °C. `O=C(OC(=O)c1cccnc1)c1cccnc1` showed a melting point of 162 to 164 °C. With `O=C(Nc1ccccc1Oc1cc(Cl)cc(Cl)c1)C1CCNCC1` the melting point was 138 to 139 °C. In the case of `Cc1[nH]c2ccccc2c1CCCN1CCC(c2noc3ccccc23)CC1`, the melting point is reported as 110 to 112 °C.
